Experimental data as given in ChEMBL document CHEMBL1201862, “PubChem BioAssay data set” (2004).
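96-well plates; 48 h exposure; 5 concentrations. Endpoints by linear interpolation between flanking doses. Not reached: highest tested concentration assigned. GI50: concentration for 50% inhibition of growth.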 Activity calls are given as the source filed them. Rule as the data show it: active = GI50 up to about 1.1 µM and inactive = higher.

Tests used:
Assay in all cases: NCI-60 cell line screen, 48 h
UACC-62 = tested on: UACC-62
SNB-19 = tested on: SNB-19
SW-620 = tested on: SW-620
OVCAR-4 = tested on: OVCAR-4
ACHN = tested on: ACHN
MDA-MB-435 = tested on: MDA-MB-435
SK-MEL-28 = tested on: SK-MEL-28
MCF7 = tested on: MCF7
SK-MEL-5 = tested on: SK-MEL-5
K562 = tested on: K562
SR = tested on: SR
COLO 205 = tested on: COLO 205
SF-295 = tested on: SF-295
HOP-92 = tested on: HOP-92
NCI/ADR-RES = tested on: NCI/ADR-RES
A549 = tested on: A549
EKVX = tested on: EKVX
LOX IMVI = tested on: LOX IMVI
RXF 393 = tested on: RXF 393
T47D = tested on: T47D
SF-539 = tested on: SF-539
HCT-116 = tested on: HCT-116
MDA-N = tested on: MDA-N
OVCAR-5 = tested on: OVCAR-5
HL-60 = tested on: HL-60
SF-268 = tested on: SF-268
MDA-MB-231 = tested on: MDA-MB-231
U-251 = tested on: U-251
NCI-H226 = tested on: NCI-H226
UACC-257 = tested on: UACC-257
Hs-578T = tested on: Hs-578T
OVCAR-8 = tested on: OVCAR-8
NCI-H522 = tested on: NCI-H522
SN12C = tested on: SN12C
TK-10 = tested on: TK-10
UO-31 = tested on: UO-31
Malme-3M = tested on: Malme-3M
DU-145 = tested on: DU-145
HCT-15 = tested on: HCT-15
KM12 = tested on: KM12
HOP-62 = tested on: HOP-62
786-0 = tested on: 786-0
NCI-H460 = tested on: NCI-H460
A498 = tested on: A498
SNB-75 = tested on: SNB-75
M14 = tested on: M14
PC-3 = tested on: PC-3
CAKI-1 = tested on: CAKI-1
IGROV-1 = tested on: IGROV-1
SK-OV-3 = tested on: SK-OV-3
NCI-H23 = tested on: NCI-H23
HCC 2998 = tested on: HCC 2998
MOLT-4 = tested on: MOLT-4
RPMI-8226 = tested on: RPMI-8226
HT-29 = tested on: HT-29
OVCAR-3 = tested on: OVCAR-3
CCRF-CEM = tested on: CCRF-CEM
SK-MEL-2 = tested on: SK-MEL-2

In the case of c1ccc([P+](Cc2ccc(C[P+](c3ccccc3)(c3ccccc3)c3ccccc3)cc2)(c2ccccc2)c2ccccc2)cc1, the GI50 (UACC-62) is reported as 44.2 µM (inactive), the GI50 (SNB-19) is reported as 26.4 µM (inactive) and the GI50 (SW-620) is reported as 72.4 µM (inactive). For the same molecule, the GI50 (OVCAR-4) was 48.1 µM (inactive), the GI50 (ACHN) was > 100 µM (inactive) and the GI50 (MDA-MB-435) was 42.7 µM (inactive). The GI50 (SK-MEL-28) was 67.9 µM (inactive), the GI50 (MCF7) was 51.4 µM (inactive) and the GI50 (SK-MEL-5) was 27.2 µM (inactive). For the same molecule, the GI50 (K562) was 9.66 µM (inactive), the GI50 (SR) was > 100 µM (inactive) and the GI50 (COLO 205) was 31.2 µM (inactive). For the same molecule, the GI50 (SF-295) was 35.6 µM (inactive), the GI50 (HOP-92) was 26.3 µM (inactive) and the GI50 (NCI/ADR-RES) was > 100 µM (inactive). For the same molecule, the GI50 (A549) was 45.7 µM (inactive), the GI50 (EKVX) was 21.8 µM (inactive) and the GI50 (LOX IMVI) was 14.6 µM (inactive). The GI50 (RXF 393) was 61.4 µM (inactive), the GI50 (T47D) was > 100 µM (inactive) and the GI50 (SF-539) was 31.2 µM (inactive). The GI50 (HCT-116) was 12.4 µM (inactive), the GI50 (MDA-N) was 31 µM (inactive) and the GI50 (OVCAR-5) was 88.5 µM (inactive). For the same molecule, the GI50 (HL-60) was 55.1 µM (inactive), the GI50 (SF-268) was > 100 µM (inactive) and the GI50 (MDA-MB-231) was 61.8 µM (inactive). The GI50 (U-251) was 21.2 µM (inactive), the GI50 (NCI-H226) was > 100 µM (inactive) and the GI50 (UACC-257) was 37.1 µM (inactive). For the same molecule, the GI50 (Hs-578T) was 32.4 µM (inactive), the GI50 (OVCAR-8) was 45.8 µM (inactive) and the GI50 (NCI-H522) was 62.2 µM (inactive). The GI50 (SN12C) was 67.5 µM (inactive), the GI50 (TK-10) was 81.7 µM (inactive) and the GI50 (UO-31) was 18.4 µM (inactive). For the same molecule, the GI50 (Malme-3M) was 52.7 µM (inactive), the GI50 (DU-145) was 86.3 µM (inactive) and the GI50 (HCT-15) was greater than 100 µM. For the same molecule, the GI50 (KM12) was 41.8 µM (inactive), the GI50 (HOP-62) was 69.5 µM (inactive) and the GI50 (786-0) was 47.5 µM (inactive). For the same molecule, the GI50 (NCI-H460) was 12.4 µM (inactive), the GI50 (A498) was > 100 µM (inactive) and the GI50 (SNB-75) was 29.6 µM (inactive). For the same molecule, the GI50 (M14) was 58.2 µM (inactive), the GI50 (PC-3) was 40.9 µM (inactive) and the GI50 (CAKI-1) was > 100 µM (inactive). The GI50 (IGROV-1) was 20.4 µM (inactive), the GI50 (SK-OV-3) was > 100 µM (inactive) and the GI50 (NCI-H23) was 32.7 µM (inactive). For the same molecule, the GI50 (HCC 2998) was 91 µM (inactive), the GI50 (MOLT-4) was > 100 µM (inactive) and the GI50 (RPMI-8226) was 43 µM (inactive). The GI50 (HT-29) was 25 µM (inactive), the GI50 (OVCAR-3) was 27.7 µM (inactive) and the GI50 (CCRF-CEM) was 71 µM (inactive).

In the case of CN(C)CCNc1ccc([N+](=O)[O-])c2nc3ccccc3c(N)c12, the GI50 (UACC-62) is reported as 1.15 µM (inactive), the GI50 (SNB-19) is reported as 0.895 µM (active) and the GI50 (SW-620) is reported as 0.297 µM (active). For the same molecule, the GI50 (OVCAR-4) was 0.74 µM (active), the GI50 (ACHN) was 0.313 µM (active) and the GI50 (MDA-MB-435) was 0.615 µM (active). The GI50 (SK-MEL-28) was 3.83 µM (inactive), the GI50 (MCF7) was > 10 µM (inactive) and the GI50 (SK-MEL-5) was 1.41 µM (inactive). For the same molecule, the GI50 (K562) was 0.341 µM (active), the GI50 (SR) was 0.282 µM (active) and the GI50 (COLO 205) was 0.182 µM (active). For the same molecule, the GI50 (SF-295) was 0.711 µM (active), the GI50 (HOP-92) was 0.547 µM (active) and the GI50 (NCI/ADR-RES) was 0.569 µM (active). The GI50 (A549) was 0.439 µM (active), the GI50 (EKVX) was 0.607 µM (active) and the GI50 (LOX IMVI) was 0.375 µM (active). For the same molecule, the GI50 (RXF 393) was 1.05 µM (active), the GI50 (T47D) was 0.48 µM (active) and the GI50 (SF-539) was 0.536 µM (active). The GI50 (HCT-116) was 0.261 µM (active), the GI50 (MDA-N) was 0.585 µM (active) and the GI50 (OVCAR-5) was > 10 µM (inactive). For the same molecule, the GI50 (HL-60) was 0.741 µM (active), the GI50 (SF-268) was 0.507 µM (active) and the GI50 (MDA-MB-231) was 0.695 µM (active). The GI50 (U-251) was 0.703 µM (active), the GI50 (NCI-H226) was > 10 µM (inactive) and the GI50 (UACC-257) was 2.18 µM (inactive). For the same molecule, the GI50 (SK-MEL-2) was 1.99 µM (inactive), the GI50 (Hs-578T) was 3.96 µM (inactive) and the GI50 (OVCAR-8) was 0.792 µM (active). For the same molecule, the GI50 (SN12C) was 0.783 µM (active), the GI50 (TK-10) was 2.53 µM (inactive) and the GI50 (UO-31) was 0.757 µM (active). For the same molecule, the GI50 (Malme-3M) was 0.443 µM (active), the GI50 (DU-145) was 0.804 µM (active) and the GI50 (HCT-15) was 0.444 µM. For the same molecule, the GI50 (KM12) was 0.381 µM (active), the GI50 (HOP-62) was 2.26 µM (inactive) and the GI50 (786-0) was 0.535 µM (active). The GI50 (NCI-H460) was 0.318 µM (active), the GI50 (SNB-75) was 0.841 µM (active) and the GI50 (M14) was 0.574 µM (active). For the same molecule, the GI50 (PC-3) was 0.405 µM (active), the GI50 (CAKI-1) was 1.84 µM (inactive) and the GI50 (IGROV-1) was 0.456 µM (active). The GI50 (SK-OV-3) was 0.152 µM (active), the GI50 (NCI-H23) was 0.889 µM (active) and the GI50 (MOLT-4) was 0.434 µM (active). For the same molecule, the GI50 (RPMI-8226) was 0.31 µM (active), the GI50 (HT-29) was 0.318 µM (active) and the GI50 (OVCAR-3) was 0.532 µM (active). For the same molecule, the GI50 (CCRF-CEM) was 0.241 µM (active).
